This is an account of results in patent US12589078B2, “Lipid nanoparticles for delivery of nucleic acids” (CureVac SE, priority 2019, dated 2026).

Where “and” joins values, the source holds several entries; their conditions need not be identical. Equal values may be shown once. Read-outs that look alike come from different tables or passages of the source. Where only a bound is given, the exact number is not on record here.

One test concerns rabies virus. The class given is in vivo, mice. The note with it: all animals, day 21 after prime.
Test [1] is described as follows: Zeta potential by Laser Doppler Microelectrophoresis. The class given is physicochemical.
For test [2], the system named is tumor antigen Trp2. The test is described as follows: Trp2 mRNA vaccination i.d.: T-cell response (TNFα+/IFNγ+ CD4+/CD8+). Particulars: C57/BL6 mice, day 0, 7, 14.
The nature of test [3]: Particle size and PDI by dynamic light scattering (Malvern Zetasizer Nano). The test is classed as physicochemical.
Test [4] has as its system tumor antigen Trp2. Nature of the test: Trp2 mRNA vaccination i.d.: IgG1/IgG2 endpoint titers (ELISA). Particulars: C57/BL6 mice, day 0, 7, 14. (An ELISA detects its analyte on a solid surface through an enzyme-linked reagent.)
Test [5] concerns malaria [NANP]7 peptide or C-terminus peptides. The test is described as follows: Malaria CSP mRNA vaccination: ELISA endpoint titers. Particulars: CSP mRNA i.m., day 35 post prime, Example 22. The test is classed as in vivo, mice. The source says: The mRNA was further enzymatically capped using ScriptCap™ m7G Capping System (CellScript, Madison,WI., USA) according to the manufacturer's instructions and enzymatically polyadenylated using a commercial polyadenylation kit, resulting in SEQ ID NO:38.
The GN01-LNP formulations were applied on days 0 and 21 intramuscularly (i.m.; musculus tibialis) with doses of RNA, formulations, and control groups as shown in Table Ex-20. A negative control group received vaccinations with an irrelevant RNA, formulated in GN01-LNPs. Serum samples were taken at day 21 and day 35 for ELISA.
ELISA was performed using malaria [NANP]7 peptide or C-terminus peptides for coating. Coated plates were incubated using respective serum dilutions, and binding of specific antibodies to the respective malaria [NANP]7 or C-terminus peptide were detected using biotinylated isotype specific anti-mouse antibodies followed by streptavidin-HRP (horse radish peroxidase) with Amplex™ Red Reagent as substrate. Endpoint titers of antibodies (IgG1, IgG2a) directed against the malaria [NANP]7 or C-terminus peptide were measured by ELISA on day 21 and day 35 post prime. […]
ELISA was performed using malaria [NANP]7 peptide for coating. […] Endpoint titers of antibodies (total IgG or IgG as indicated in the respective Figures) directed against the malaria [NANP]7 peptide were measured by ELISA on day 35 post prime.

Regarding `CCCCCCCCC(CCCCCC)COC(=O)CCCC(=O)OCCC1CCN(CCSSCCN2CCC(CCOC(=O)CCCC(=O)OCC(CCCCCC)CCCCCCCC)CC2)CC1` (centres unmarked) [Lipid C2, O1-[2-[1-[2-[2-[4-[2-[5-(2-hexyldecoxy)-5-oxo-pentanoyl]oxyethyl]-1-piperidyl]ethyldisulfanyl]ethyl]-4-piperidyl]ethyl] 05-(2-hexyldecyl) pentanedioate], the VNTs with rabies virus (single i.m. 5 μg RABV-G-mRNA) was more than 0.5 IU/ml.

Turning to `CCN1CCC(CCOC(=O)C(CCSSCCC(NC(=O)CC(=O)Oc2c(C)c(C)c3c(c2C)CCC(C)(CCCC(C)CCCC(C)CCCC(C)C)O3)C(=O)OCCC2CCN(CC)CC2)NC(=O)CC(=O)Oc2c(C)c(C)c3c(c2C)CCC(C)(CCCC(C)CCCC(C)CCCC(C)C)O3)CC1` (centres unmarked) [Lipid C10, VitE-C4DE-CysPipSS], the zeta potential in test [1] is 36.00 mV and 26.00 mV. Besides, in the test with tumor antigen Trp2 [2], the T-cell responses entry is given as “low T-cell responses”. Moreover, in test [3], the PDI was 0.50 and 0.34; the size was 103 nm and 67 nm. Further, the “IgG1 and IgG2 titers” value in the test on tumor antigen Trp2 [4] is “stable IgG1 and IgG2 titers”.

The compound `Cc1c(C)c2c(c(C)c1OC(=O)CCC(=O)OCCC1CCN(CCSCCN3CCC(CCOC(=O)CCC(=O)Oc4c(C)c(C)c5c(c4C)CC[C@@](C)(CCC[C@H](C)CCC[C@H](C)CCCC(C)C)O5)CC3)CC1)CC[C@@](C)(CCC[C@H](C)CCC[C@H](C)CCCC(C)C)O2` [Lipid C26, VitE-C4DE-Piperidine-Thioether] registered a VNTs with rabies virus (single i.m. 1 μg RABV-G-mRNA) of more than 0.5 IU/ml. For the same compound, the “IgG1 endpoint titers ([NANP]7 peptide)” value in test [5] is on record as “very strong humoral immune responses”.
